Measurements from article PMC8279484 (Journal of Medicinal Chemistry, 2021).
Several values for one entry are separate records, joined by “and”; a condition that tells them apart may be missing. Equal entries are not always repeated.

Assays:
Format in all cases: cell-based, human
[1] = system: THP-1-MF0 macrophage; experiment: Phagocytosis of fluorescent E. coli bioparticles by THP-1-MF0 macrophages; conditions: for EC50: Homo sapiens, Macrophage, 30 min pretreatment, read-out: Potency EC50; for EC50 / Efficacy Emax (%): 2 h bioparticles; for Efficacy Emax (%): 30 min pretreatment 1 fM–1 μM, figure expresses fold change
Protocol: Mycoplasma-free THP-1 monocytes were grown in an RPMI 1640 (Gibco) medium containing 2 mM L-glutamine, 2.00 g/L sodium bicarbonate, and 2.00 g/L glucose. Then, 10% (v/v) heat-inactivated FBS (30 min at 56 °C) and Pen-Strep (100 U/mL to 100 μg/mL) were supplemented to the growth media.
Cell adherence was allowed for 1 h and 30 min at 37 °C/5% CO2. Cells were then treated for 30 min with controls and phagocytosis effectors for testing (vehicle, LXs, Rvs, or sLXms). Subsequently, media containing controls/effectors were vacuum-aspirated and replaced with a solution containing fluorescently prelabeled E. coli-derived bioparticles and cells were incubated in the dark for 2 h at 37 °C/5% CO2 to allow particle ingestion by monocytes/macrophages. After that, media containing bioparticles were vacuum-aspirated and replaced with a solution containing trypan blue and cells were incubated for 1 min at room temperature to allow quenching of unbound particles to ensure specificity of the fluorescent signal, deriving only from ingested particles (not shown). After aspiration of Trypan, the fluorescence reading was immediately performed at the following conditions: end point; reading from the bottom of the plate; Ex.480/Em.520 nm.

[2] = system: IFNγ; experiment: LPS-induced IFNγ release from THP-1 Lucia monocytes (multiplex electrochemiluminescence); conditions: for IC50: Homo sapiens, THP-1; for IC50 / Imax, IFNγ release: LPS 50 ng/mL, 24 h; for Imax, IFNγ release: concentration–response
Protocol: LXA41 and all of the tested sLXms were dissolved in ethanol and further diluted in a culture medium (final ethanol concentration 0.1%; equivalent concentrations were used as the vehicle control). Prior to in vitro experiments, THP-1-Lucia NF-κB cells were harvested and plated at 1 × 10^5 cells/well on 96-well plates and left to settle in the incubator at 37 °C, 95% humidity, and 5% CO2, in 0.1% FBS-containing media, pretreated for 30 min with increasing doses of LXA41, sLXms (from 10^–12 to 10^–6 M), or appropriate controls, followed by stimulation with 50 ng/mL LPS for 24 h. Untreated (Unt) or vehicle-treated (Veh) cells were used as negative controls; 1 pM (1R)-5, the (1R)-epimer of the benzo-mimetic, was used as a positive control for any aromatic mimetic; and, finally, we compared the observed effects to the conventional glucocorticoid dexamethasone (Dex) treatment, at 1 μM.
After 24 h of exposure to LXA41, sLXms, or vehicle, followed by LPS stimulation (50 ng/mL), as described above, THP-1-Lucia NF-κB-cell supernatants were collected and cleared by centrifugation. Concentrations of IFN-γ, IL-1β, IL-6, IL-8, IL-10, IL-12p70, and TNF-α in culture supernatants were assessed by electro-chemi-luminescent detection, using a commercially available human 96-well plate “multiplex” (several analytes in the same well) kit for tissue culture samples, according to the manufacturers’ guidelines.
The “coding” of the heat-map indicates the arbitrary criteria to assign points to each single PD component (efficacy = Imax or Emax; potency = IC50 or EC50; slope = HS) to generate a final (aggregate) relative PD score. If a single PD component was greater than the reference level (x > 1), then the single-component relative score was arbitrarily set to +1 (light green) or +2 (dark green). If a single PD component was equal to the reference level (x = 1), then the single-component relative score was arbitrarily set to 0 (gray). If a single PD component was smaller than the reference level (x < 1), then the single-component relative score was arbitrarily set to −1 (light red) or −2 (dark red). If the curve of a single PD component was best fitting to a flat line (x = 0), then the single-component relative score was arbitrarily set to −4 (purple) (Table S1).

[3] = system: THP-1 LUCIA monocytes; experiment: In vitro safety study: Safety index (Si), activity versus toxicity; conditions: for IC50: Homo sapiens, THP-1, highest IC50 among the LPS-challenged assays (NF-κB activity, cytokine, LDH release), read-out: Extrinsic Activity hIC50; for Safety Index TC50/IC50: ratio of intrinsic TC50 to extrinsic hIC50
Protocol: A postanalysis “safety study” was conducted on all QNX-sLXms. For each tested compound, we calculated an in vitro “Safety index” (Si) by relating its “anti-inflammatory half-maximal activity” (the highest dose among the IC50 of the extrinsic LPS-challenged phenotype: NF-κB activity, proinflammatory cytokine, and LDH release) to its intrinsic “toxicity” (expressed as the relative half-maximal LDH-associated cytotoxicity). The generated Si is potentially predictive of a translational “therapeutic” range: the higher the Si, the safer the molecule is. As summarized in Table S4, Si values from all tested compounds fall in a broad range (7–50).

[4] = system: THP-1 LUCIA monocytes; experiment: Intrinsic cytotoxicity: LDH release without LPS; conditions: for Intrinsic Toxicity Level: LDH-associated level of cytotoxicity (high / moderate / low); for intrinsic LDH release versus vehicle / spontaneous cell release: absence of LPS, 24 h, controls Dex 1 μM, 2 1 pM, 5 1 pM; for Intrinsic Toxicity TC50 (pM): half-maximal intrinsic LDH-associated toxic activity, no LPS
How it was run: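 THP-1-Lucia NF-κB cells exposed 24 h to compounds, vehicle or controls, then LPS-stimulated for extrinsic, unstimulated for intrinsic. Supernatant LDH read at 490 nm minus 690 nm, relative to vehicle; maximum release from 2% Triton-X-100 lysis, spontaneous release from untreated cells; LPS response set to 100%.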

## CCCCC[C@@H](O)c1nc2ccccc2nc1/C=C/[C@@H](O)[C@@H](O)CCCC(=O)OC [(R)-6, Methyl (5S,6R,E)-5,6-Dihydroxy-8-(3-((R)-1-hydroxyhexyl)quinoxalin-2-yl)oct-7-enoate]
[1]
  EC50: 0.05 nM
[1]; relative to LXA4 (1)
  Potency Rel. Pot.: 100
  Single comp. score Rel. Pot.: 2 (x ≥ 5)
[2]
  IC50: 0.001 nM
  Imax, IFNγ release: 62 ± 1%
[3]
  IC50: 0.025 nM
  Safety Index TC50/IC50: 20
[4]
  Intrinsic Toxicity Level: Low and low cytotoxicity
  intrinsic LDH release versus vehicle / spontaneous cell release: lower than the vehicle
  Intrinsic Toxicity TC50 (pM): 500 pM

## CCCCC[C@@H](O)c1nc2ccccc2nc1/C=C/[C@H]1OC(C)(C)O[C@H]1CCCC(=O)OC [(R)-17, Methyl 4-((4S,5R)-5-((E)-2-(3-((R)-1-Hydroxyhexyl)quinoxalin-2-yl)vinyl)-2,2-dimethyl-1,3-dioxolan-4-yl)butanoate]
[3]
  IC50: 0.01 nM
  Safety Index TC50/IC50: 10
[4]
  Intrinsic Toxicity TC50 (pM): 100 pM

## CCCCCCC[C@H](O)c1nc2ccccc2nc1/C=C/[C@@H](O)[C@@H](O)CCCC(=O)OC [(S)-8, Methyl (5S,6R,E)-5,6-Dihydroxy-8-(3-((S)-1-hydroxyoctyl)quinoxalin-2-yl)oct-7-enoate]
[2]; relative to LXA4 (1)
  PD score, IFNγ release: negative PD scores
[3]
  IC50: 0.01 nM
  Safety Index TC50/IC50: 10
[4]
  Intrinsic Toxicity Level: Low
  intrinsic LDH release versus vehicle / spontaneous cell release: lower than the vehicle
  Intrinsic Toxicity TC50 (pM): 100 pM

## CCCCC[C@H](O)/C=C/C=C\C=C\C=C\[C@@H](O)[C@@H](O)CCCC(=O)O [Compound 1, LXA4]
[1]
  Efficacy Emax (%): 4.2 ± 0.5% and 4.2 ± 2%
[1]; back to baseline at 1 μM
  concentration of peak phagocytosis: 100 nM
[1]; concentration-dependent, at peak
  increase of phagocytosis: 4 fold
[1]; relative to LXA4 (1)
  Efficacy Rel. Eff.: 0
  Potency Rel. Pot.: 1
[2]
  IC50: 0.001 nM
  Imax, IFNγ release: 72 ± 4%

## CCCCC[C@@H](O)c1c(/C=C/[C@@H](O)[C@@H](O)CCCC(=O)OC)nc(C)n1C [Compound 5, imidazolo-LXA4]
[1]
  Efficacy Emax (%): 4.2 ± 0.7%
  EC50: 0.01 nM
[1]; relative to LXA4 (1)
  Potency Rel. Pot.: 500
  Single comp. score Rel. Pot.: 2 (x ≥ 5)
[4]
  intrinsic LDH release versus vehicle / spontaneous cell release: did not display any significant cytotoxic effect
